Assay results from patent US20250152585A1, “PHARMACEUTICAL COMPOUND” (Duke Street Bio Limited, priority 2022, published 2025).

Legend:
[1] = target: T1, PARP2 (Homo sapiens, UniProt Q9UGN5); assay: NanoBRET cellular target occupancy assay, PARP2; type: cell-based; settings: HEK293 cells transiently transfected with PARP2-NanoLuc fusion; tracer 2 nM; 2 hours at 37° C.; Kd by Cheng-Prussoff
T1 construct: host or cells: HEK293
From the text: NanoBRET Cellular Target Occupancy Assay

[2] = target: T2, N-terminally FLAG-tagged PARP2 (amino acids 1-583) (Homo sapiens, UniProt Q9UGN5); assay: PARP2 probe displacement HTRF assay; type: binding; settings: binned Kd, probe displacement HTRF
T2 construct: N-terminally FLAG-tagged PARP2 (amino acids 1-583)
T2 sequence (Q9UGN5 whole entry, the tested form may be a part): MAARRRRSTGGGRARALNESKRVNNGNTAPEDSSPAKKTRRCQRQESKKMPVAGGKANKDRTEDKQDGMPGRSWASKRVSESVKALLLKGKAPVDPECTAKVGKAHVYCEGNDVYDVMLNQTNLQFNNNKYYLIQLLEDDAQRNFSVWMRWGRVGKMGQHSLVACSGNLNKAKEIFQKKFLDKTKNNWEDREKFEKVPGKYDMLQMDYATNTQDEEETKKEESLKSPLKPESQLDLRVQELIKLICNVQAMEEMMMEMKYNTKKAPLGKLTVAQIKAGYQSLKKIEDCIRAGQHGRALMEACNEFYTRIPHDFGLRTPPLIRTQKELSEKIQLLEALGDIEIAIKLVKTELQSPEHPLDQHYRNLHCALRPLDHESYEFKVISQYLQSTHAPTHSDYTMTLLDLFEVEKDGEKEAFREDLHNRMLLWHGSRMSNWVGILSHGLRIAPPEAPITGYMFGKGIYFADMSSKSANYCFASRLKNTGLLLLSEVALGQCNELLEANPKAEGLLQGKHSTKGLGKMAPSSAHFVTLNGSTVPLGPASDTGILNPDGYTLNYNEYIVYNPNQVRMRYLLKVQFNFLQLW
Method: Data analysis was performed identical as for PARP1.

[3] = target: T3, full length N-terminally FLAG-tagged PARP1 (Homo sapiens, UniProt P09874); assay: PARP1 biochemical DELFIA assay (auto-PARylation); parameters: recombinant full length human N-terminally FLAG-tagged PARP1; settings: binned IC50, biochemical auto-PARylation assay
T3 sequence (P09874 whole entry): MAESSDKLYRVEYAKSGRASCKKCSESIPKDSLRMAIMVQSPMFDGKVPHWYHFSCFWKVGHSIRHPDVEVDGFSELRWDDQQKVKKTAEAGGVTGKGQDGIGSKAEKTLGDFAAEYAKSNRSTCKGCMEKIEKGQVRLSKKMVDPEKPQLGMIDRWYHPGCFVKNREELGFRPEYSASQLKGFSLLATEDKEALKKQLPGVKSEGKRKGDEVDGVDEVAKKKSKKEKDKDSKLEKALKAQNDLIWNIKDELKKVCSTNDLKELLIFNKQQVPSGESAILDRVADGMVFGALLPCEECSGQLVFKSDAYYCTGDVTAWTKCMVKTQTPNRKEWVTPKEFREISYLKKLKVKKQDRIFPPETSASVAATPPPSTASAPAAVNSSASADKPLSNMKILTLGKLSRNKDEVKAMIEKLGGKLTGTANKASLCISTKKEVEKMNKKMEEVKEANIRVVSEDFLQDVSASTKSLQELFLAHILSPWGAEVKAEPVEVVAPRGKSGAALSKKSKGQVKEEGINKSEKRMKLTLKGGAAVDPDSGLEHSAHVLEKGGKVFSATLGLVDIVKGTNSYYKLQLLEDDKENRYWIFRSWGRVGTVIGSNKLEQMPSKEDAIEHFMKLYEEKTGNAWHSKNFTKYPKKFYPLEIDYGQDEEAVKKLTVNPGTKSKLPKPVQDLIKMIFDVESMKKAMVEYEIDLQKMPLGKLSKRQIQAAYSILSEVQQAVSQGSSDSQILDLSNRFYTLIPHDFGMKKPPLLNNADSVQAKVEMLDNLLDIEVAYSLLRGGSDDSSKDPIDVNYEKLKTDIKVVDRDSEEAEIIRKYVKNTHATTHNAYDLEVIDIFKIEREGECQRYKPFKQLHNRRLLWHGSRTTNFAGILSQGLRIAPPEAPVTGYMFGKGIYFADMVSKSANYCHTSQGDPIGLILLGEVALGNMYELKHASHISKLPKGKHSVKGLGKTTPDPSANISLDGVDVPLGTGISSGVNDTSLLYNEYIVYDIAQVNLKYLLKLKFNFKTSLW

[4] = target: T3, full length N-terminally FLAG-tagged PARP1; assay: PARP1 probe displacement HTRF assay; settings: probe displacement HTRF; for Kd: PARP1 HTRF, binned Kd; for Selectivity: PARP1 over PARP2, ratio Kd (PARP2)/Kd (PARP1)

T1 sequence (Q9UGN5 whole entry, the tested form may be a part): as the sequence (Q9UGN5 whole entry, the tested form may be a part) above

| Kd [1] | Kd [2] | IC50 [3] | Kd [4] | SMILES | Selectivity [4] |
| --- | --- | --- | --- | --- | --- |
| – | 1000 to 10000 nM | < 10 nM | < 10 nM | CNC(=O)c1ccc(N2CCC(N3CC4(c5nc6c(c(=O)[nH]5)COCC6)CC3C4)CC2)cn1 [Compound 373] | +++ (+++ indicate a value of at least 100) |
| – | 100 to 1000 nM | < 10 nM | < 10 nM | CNC(=O)c1ccc(N2CCC(N3CC4(c5nc6c(c(=O)[nH]5)CCCN6C)CC3C4)CC2)c(F)n1 [Compound 375, 6-fluoro-N-methyl-5-(4-(4-(8-methyl-4-oxo-3,4,5,6,7,8-hexahydropyrido[2,3-d]pyrimidin-2-yl)-2-azabicyclo[2.1.1]hexan-2-yl)piperidin-1-yl)picolinamide] | + (+ indicates a value of 10 to less than 50) |
| – | 100 to 1000 nM | < 10 nM | < 10 nM | CCN1CCCc2c1nc(C13CC(C1)N(C1CCN(c4ccc(C(=O)NC)nc4F)CC1)C3)[nH]c2=O [Compound 384] | + (+ indicates a value of 10 to less than 50) |
| – | 100 to 1000 nM | < 10 nM | < 10 nM | CNC(=O)c1ccc(N2CCC(N3CC4(c5nc6ccc(F)cc6c(=O)[nH]5)CC3C4)CC2)c(C#N)n1 [Compound 387] | +++ (+++ indicate a value of at least 100) |
| – | 100 to 1000 nM | < 10 nM | < 10 nM | CNC(=O)c1ccc(N2CCC(N3CC4(c5nc6c(c(=O)[nH]5)CCCC6)CC3C4)CC2)c(F)n1 [Compound 389] | +++ (+++ indicate a value of at least 100) |

Further lines, the compound ahead of its results:

| SMILES | Kd [1] | Kd [2] | IC50 [3] | Kd [4] | Selectivity [4] |
| --- | --- | --- | --- | --- | --- |
| CNC(=O)c1ccc(N2CCC(N3CCC(c4cc5c(F)cncc5c(=O)[nH]4)C3)CC2)c(F)n1 (single isomer, unassigned) [Compound 343a, 6-fluoro-5-(4-(3-(5-fluoro-1-oxo-1,2-dihydro-2,7-naphthyridin-3-yl)pyrrolidin-1-yl)piperidin-1-yl)-N-methylpicolinamide] | 1000 to 10000 nM | 100 to 1000 nM | – | – | – |
| O=C(NC1CC1)c1ccc(N2CCC(N3CC4(c5nc6cccc(F)c6c(=O)[nH]5)CC3C4)CC2)c(F)n1 [Compound 376] | – | 100 to 1000 nM | < 10 nM | < 10 nM | +++ (+++ indicate a value of at least 100) |
| CNC(=O)c1ncc(N2CCC(N3CC4(c5nc6ccc(F)cc6c(=O)[nH]5)CC3C4)CC2)cc1F [Compound 379] | – | 100 to 1000 nM | < 10 nM | < 10 nM | +++ (+++ indicate a value of at least 100) |
| N#Cc1ccc(N2CCC(N3CC4(c5nc6ccc(F)cc6c(=O)[nH]5)CC3C4)CC2)c(F)c1 [Compound 380] | – | > 10000 nM | < 10 nM | < 10 nM | +++ (+++ indicate a value of at least 100) |
| N#Cc1ccc(N2CCC(N3CC4(c5nc6ccc(F)cc6c(=O)[nH]5)CC3C4)CC2)c(Cl)c1 [Compound 381] | – | 1000 to 10000 nM | < 10 nM | < 10 nM | +++ (+++ indicate a value of at least 100) |
| N#Cc1nc(C(=O)NC2CC2)ccc1N1CCC(N2CC3(c4nc5ccc(F)cc5c(=O)[nH]4)CC2C3)CC1 [Compound 388] | – | 100 to 1000 nM | < 10 nM | < 10 nM | +++ (+++ indicate a value of at least 100) |
| CNC(=O)c1ccc(N2CCC(N3CC4(c5nc6cccc(C(F)(F)F)c6c(=O)[nH]5)CC3C4)CC2)cn1 [Compound 394] | – | 10 to 100 nM | < 10 nM | < 10 nM | + (+ indicates a value of 10 to less than 50) |
| O=C(NC1CC1)c1ncc(N2CCC(N3CC4(c5nc6ccc(F)cc6c(=O)[nH]5)CC3C4)CC2)cc1F [Compound 411] | – | 100 to 1000 nM | < 10 nM | < 10 nM | +++ (+++ indicate a value of at least 100) |
